Laboratory results from ChEMBL document CHEMBL4376834, “Discovery of 4H-Chromen-4-one Derivatives as a New Class of Selective Rho Kinase (ROCK) Inhibitors, which Showed Potent Activity in ex Vivo Diabetic Retinopathy Models” (J Med Chem, 2019).

Assays:
[1] = biological target: Tyrosine-protein kinase ABL1 (Homo sapiens, UniProt P00519); experiment: Inhibition of human recombinant ABL1 (27 to end residues) using EAIYAAPFAKKK as substrate incubated for 40 mins in presence of [gamma-33P]ATP by radiometric scintillation counting analysis
CDK4/Cyclin D3 = CDK4/Cyclin D3 (Homo sapiens, UniProt P11802); experiment: Inhibition of recombinant full length human CDK4/CyclinD3 using Rb fragment as substrate incubated for 40 mins in presence of [gamma-33ATP] by radiometric scintillation counting analysis; type: protein-complex assay
[2] = biological target: Protein kinase C delta type (Homo sapiens, UniProt Q05655); experiment: Inhibition of recombinant human PKCdelta (2 to end residues) using ERMRPRKRQGSVRR as substrate incubated for 40 mins in presence of [gamma33P]ATP by radiometric scintillation counting analysis
[3] = biological target: Mitogen-activated protein kinase kinase kinase 10 (Homo sapiens, UniProt Q02779); experiment: Inhibition of recombinant human MLK2 (1 to 499 residues) using myelin basic protein as substrate incubated for 40 mins in presence of [gamma-33ATP by radiometric scintillation counting analysis
[4] = biological target: Serine/threonine-protein kinase mTOR (Homo sapiens, UniProt P42345); experiment: Inhibition of recombinant full length human mTOR measured after 40 mins in presence of [gamma33P]ATP by radiometric scintillation counting analysis
[5] = biological target: Hepatocyte growth factor receptor (Homo sapiens, UniProt P08581, A1209G/V1290L); experiment: Inhibition of recombinant human MET A1209G/V1290L double mutant (974 to end residues) using KKKGQEEEYVFIE as substrate incubated for 40 mins in presence of [gamma-33ATP by radiometric scintillation counting analysis
[6] = Inhibition of human MAPK2
[7] = biological target: Serine/threonine-protein kinase 32A (Homo sapiens, UniProt Q8WU08); experiment: Inhibition of recombinant human full length STK32A using casein as substrate incubated for 40 mins in presence of [gamma33P]ATP by radiometric scintillation counting analysis
Tau-tubulin kinase 1 = Tau-tubulin kinase 1 (Homo sapiens, UniProt Q5TCY1); experiment: Inhibition of recombinant human TTBK1 (1 to 479 residues) using casein as substrate incubated for 40 mins in presence of [gamma33P]ATP by radiometric scintillation counting analysis
[8] = biological target: Dual specificity protein kinase TTK (Homo sapiens, UniProt P33981, S389A); experiment: Inhibition of recombinant full-length human TTK S389A mutant using MBP as substrate incubated for 40 mins in presence of [gamma33P]ATP by radiometric scintillation counting analysis
[9] = biological target: Serine/threonine-protein kinase VRK1 (Homo sapiens, UniProt Q99986); experiment: Inhibition of human VRK1 in presence of 10 uM ATP by radiometric analysis

Measured: IC50

Chain of Tau-tubulin kinase 1 (Q5TCY1 whole entry, the tested form may be a part): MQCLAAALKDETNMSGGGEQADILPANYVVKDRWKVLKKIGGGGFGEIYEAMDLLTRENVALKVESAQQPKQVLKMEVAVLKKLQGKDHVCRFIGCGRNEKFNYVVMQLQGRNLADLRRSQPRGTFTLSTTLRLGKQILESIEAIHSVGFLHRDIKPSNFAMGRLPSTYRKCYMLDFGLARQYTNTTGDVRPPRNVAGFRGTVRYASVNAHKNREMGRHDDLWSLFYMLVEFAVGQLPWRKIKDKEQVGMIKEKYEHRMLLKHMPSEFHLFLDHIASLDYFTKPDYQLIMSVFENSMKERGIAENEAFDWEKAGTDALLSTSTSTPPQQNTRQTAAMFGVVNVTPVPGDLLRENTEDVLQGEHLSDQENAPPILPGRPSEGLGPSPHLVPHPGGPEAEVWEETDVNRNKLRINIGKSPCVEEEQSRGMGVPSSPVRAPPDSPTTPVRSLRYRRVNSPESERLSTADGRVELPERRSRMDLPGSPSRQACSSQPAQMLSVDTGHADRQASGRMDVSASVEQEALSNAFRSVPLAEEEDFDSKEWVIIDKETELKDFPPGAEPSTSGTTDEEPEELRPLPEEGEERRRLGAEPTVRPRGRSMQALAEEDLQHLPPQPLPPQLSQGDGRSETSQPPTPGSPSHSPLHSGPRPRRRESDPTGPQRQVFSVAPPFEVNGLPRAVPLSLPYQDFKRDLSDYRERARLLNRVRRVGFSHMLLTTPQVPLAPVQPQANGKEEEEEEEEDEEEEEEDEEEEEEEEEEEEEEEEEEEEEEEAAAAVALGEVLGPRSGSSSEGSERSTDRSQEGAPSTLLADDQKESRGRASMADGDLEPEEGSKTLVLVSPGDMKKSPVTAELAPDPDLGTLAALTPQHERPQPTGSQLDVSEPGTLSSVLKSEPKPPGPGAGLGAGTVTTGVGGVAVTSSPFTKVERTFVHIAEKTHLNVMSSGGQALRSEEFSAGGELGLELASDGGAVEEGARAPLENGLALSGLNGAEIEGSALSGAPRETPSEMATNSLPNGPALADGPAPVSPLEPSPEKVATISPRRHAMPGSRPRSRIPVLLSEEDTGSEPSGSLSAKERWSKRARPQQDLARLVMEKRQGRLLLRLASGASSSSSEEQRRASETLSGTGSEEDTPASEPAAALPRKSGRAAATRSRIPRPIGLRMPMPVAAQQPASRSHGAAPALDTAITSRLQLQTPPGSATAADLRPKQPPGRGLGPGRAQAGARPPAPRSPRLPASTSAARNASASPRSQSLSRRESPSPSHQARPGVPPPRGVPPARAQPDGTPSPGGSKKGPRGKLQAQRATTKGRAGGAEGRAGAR
Chain of Serine/threonine-protein kinase VRK1 (Q99986 whole entry): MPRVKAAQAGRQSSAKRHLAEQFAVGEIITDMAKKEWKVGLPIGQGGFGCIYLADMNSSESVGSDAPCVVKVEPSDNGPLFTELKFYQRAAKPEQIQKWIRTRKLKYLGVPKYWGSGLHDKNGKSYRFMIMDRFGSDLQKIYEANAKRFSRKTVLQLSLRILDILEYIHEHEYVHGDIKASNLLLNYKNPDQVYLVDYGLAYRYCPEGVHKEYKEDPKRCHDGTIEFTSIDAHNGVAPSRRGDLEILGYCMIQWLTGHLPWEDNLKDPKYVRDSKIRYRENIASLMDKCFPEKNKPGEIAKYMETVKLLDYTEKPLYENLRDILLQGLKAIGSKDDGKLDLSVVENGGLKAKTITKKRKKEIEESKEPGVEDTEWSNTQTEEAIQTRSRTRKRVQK
Chain of CDK4/Cyclin D3 (P11802 whole entry, the tested form may be a part): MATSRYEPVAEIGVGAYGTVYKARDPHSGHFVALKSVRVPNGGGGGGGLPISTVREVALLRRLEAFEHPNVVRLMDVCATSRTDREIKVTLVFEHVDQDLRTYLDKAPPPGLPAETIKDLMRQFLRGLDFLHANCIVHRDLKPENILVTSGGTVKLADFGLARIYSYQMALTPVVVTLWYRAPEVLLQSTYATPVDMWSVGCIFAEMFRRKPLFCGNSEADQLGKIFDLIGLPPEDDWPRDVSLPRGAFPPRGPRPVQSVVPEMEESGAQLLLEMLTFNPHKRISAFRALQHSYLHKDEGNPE
Chain of CDK4/Cyclin D3 (P30281 whole entry, further chain, the tested form may be a part): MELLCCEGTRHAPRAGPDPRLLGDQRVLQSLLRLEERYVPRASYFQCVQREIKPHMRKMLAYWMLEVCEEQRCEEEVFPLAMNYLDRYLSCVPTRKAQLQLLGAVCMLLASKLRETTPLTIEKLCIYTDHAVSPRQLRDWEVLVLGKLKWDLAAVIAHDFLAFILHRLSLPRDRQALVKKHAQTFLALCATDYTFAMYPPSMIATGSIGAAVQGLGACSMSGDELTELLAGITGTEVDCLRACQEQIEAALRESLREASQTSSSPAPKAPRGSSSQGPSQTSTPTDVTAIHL
Chain of Protein kinase C delta type (Q05655 whole entry, the tested form may be a part): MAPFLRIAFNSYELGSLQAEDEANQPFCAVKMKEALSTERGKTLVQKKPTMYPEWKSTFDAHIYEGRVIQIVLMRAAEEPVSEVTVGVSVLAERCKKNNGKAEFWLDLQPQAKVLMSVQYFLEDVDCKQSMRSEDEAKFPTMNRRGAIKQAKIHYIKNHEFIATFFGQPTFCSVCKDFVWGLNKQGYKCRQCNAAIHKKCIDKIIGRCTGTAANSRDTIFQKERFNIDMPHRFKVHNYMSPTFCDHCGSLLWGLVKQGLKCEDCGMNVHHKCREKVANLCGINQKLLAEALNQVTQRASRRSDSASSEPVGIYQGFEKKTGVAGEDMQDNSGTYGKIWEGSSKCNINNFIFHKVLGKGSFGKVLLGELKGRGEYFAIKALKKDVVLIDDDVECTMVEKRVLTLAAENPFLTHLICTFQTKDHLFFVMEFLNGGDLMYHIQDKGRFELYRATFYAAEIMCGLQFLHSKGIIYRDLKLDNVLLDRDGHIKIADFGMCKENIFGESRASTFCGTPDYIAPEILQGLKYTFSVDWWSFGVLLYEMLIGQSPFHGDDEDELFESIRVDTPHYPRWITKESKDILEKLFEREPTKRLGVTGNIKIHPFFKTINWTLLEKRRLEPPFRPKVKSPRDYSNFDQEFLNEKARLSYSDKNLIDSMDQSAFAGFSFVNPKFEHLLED
Chain of Serine/threonine-protein kinase 32A (Q8WU08 whole entry, the tested form may be a part): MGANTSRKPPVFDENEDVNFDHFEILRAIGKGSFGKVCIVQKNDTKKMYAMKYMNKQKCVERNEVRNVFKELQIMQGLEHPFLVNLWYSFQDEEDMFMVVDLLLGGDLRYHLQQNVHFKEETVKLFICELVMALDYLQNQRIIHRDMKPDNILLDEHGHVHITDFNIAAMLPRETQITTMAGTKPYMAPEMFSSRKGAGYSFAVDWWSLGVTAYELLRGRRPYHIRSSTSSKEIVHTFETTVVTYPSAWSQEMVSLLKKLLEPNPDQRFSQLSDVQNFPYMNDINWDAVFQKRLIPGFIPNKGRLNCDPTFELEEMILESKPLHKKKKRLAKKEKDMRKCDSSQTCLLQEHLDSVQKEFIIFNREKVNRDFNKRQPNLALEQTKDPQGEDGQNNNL
Chain of Hepatocyte growth factor receptor (P08581 whole entry, looked up, stated change not applied): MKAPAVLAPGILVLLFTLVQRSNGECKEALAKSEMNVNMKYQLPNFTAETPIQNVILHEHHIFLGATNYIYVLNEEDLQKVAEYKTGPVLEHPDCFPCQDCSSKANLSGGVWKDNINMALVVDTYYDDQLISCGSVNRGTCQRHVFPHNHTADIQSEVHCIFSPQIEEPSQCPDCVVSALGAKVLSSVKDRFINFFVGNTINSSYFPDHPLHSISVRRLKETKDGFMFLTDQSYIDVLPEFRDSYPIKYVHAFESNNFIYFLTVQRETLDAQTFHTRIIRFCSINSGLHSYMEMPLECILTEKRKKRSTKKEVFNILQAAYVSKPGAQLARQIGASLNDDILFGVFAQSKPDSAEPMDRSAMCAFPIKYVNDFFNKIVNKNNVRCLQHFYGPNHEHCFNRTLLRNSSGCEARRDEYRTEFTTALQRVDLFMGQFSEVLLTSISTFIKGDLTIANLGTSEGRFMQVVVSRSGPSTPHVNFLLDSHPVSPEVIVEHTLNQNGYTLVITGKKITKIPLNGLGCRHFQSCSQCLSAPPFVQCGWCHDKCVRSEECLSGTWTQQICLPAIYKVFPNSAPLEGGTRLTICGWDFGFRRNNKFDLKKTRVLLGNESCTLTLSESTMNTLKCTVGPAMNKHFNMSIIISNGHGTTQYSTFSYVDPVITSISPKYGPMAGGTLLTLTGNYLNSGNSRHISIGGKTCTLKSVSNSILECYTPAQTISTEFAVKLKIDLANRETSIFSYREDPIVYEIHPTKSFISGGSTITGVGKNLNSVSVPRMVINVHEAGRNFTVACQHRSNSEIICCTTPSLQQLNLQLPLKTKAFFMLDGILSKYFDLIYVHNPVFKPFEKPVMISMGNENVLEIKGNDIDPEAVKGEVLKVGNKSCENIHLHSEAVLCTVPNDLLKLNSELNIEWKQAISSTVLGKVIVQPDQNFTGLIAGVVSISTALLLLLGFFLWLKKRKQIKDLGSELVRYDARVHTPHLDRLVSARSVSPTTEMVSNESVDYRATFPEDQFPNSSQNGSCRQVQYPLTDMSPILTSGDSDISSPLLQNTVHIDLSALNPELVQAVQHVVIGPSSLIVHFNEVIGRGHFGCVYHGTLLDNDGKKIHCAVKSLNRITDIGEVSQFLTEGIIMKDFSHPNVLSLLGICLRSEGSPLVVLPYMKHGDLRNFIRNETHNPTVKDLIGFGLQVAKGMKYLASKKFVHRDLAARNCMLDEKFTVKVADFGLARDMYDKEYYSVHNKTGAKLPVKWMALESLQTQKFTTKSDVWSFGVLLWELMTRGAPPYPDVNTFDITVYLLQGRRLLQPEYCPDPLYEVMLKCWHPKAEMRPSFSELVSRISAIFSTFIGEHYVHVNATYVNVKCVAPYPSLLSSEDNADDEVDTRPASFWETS

CN(C)c1ccc(C(=O)Nc2cccc(NC(=O)COc3ccc4c(=O)ccoc4c3)c2)cc1
> 10 µM: [1] | CDK4/Cyclin D3 | [2] | [3] | [4] | [5] | [6] | [7] | Tau-tubulin kinase 1 | [8] | [9]
